Values of other authors in patent US20100267730A1, “NOVEL COMPOUNDS” (priority 2008, published 2010).

Columns and labels:
freely-feeding rats = details: central administration, 4 hour time period
orexin receptors = details: central administration at the onset of the normal sleep period, rat sleep/EEG

Substance: orexin-A: ligand (agonist) of the orexin receptors; human Orexin-A amino acid sequence SEQ ID NO: 1 (EPLPDCCRQKTCSCRLYELLHGAGNHAAGILTL; Homo sapien)
- increase in food intake over control rats receiving vehicle (freely-feeding rats): approximately four-fold
- effect on arousal (orexin receptors): dose-related increase in arousal
